Results: patent US9604980B2, “Substituted pyrimidinyl and pyridinyl-pyrrolopyridinones, process for their preparation and their use as kinase inhibitors” (NERVIANO MEDICAL SCIENCES S.r.l, priority 2012, dated 2017)
In brackets after ≈: the same amount, converted by molar mass.

How the values were obtained:
[1] = tested on: TT medullary thyroid carcinoma cells, harboring a mutated RET-C634W receptor; assay: In Vitro Cell Proliferation Assay (TT); format: cell-based; conditions: Homo sapiens; 144 hours exposure, CellTiterGlo
Experimental: (§1) In Vitro Cell Proliferation Assay
(§2) To evaluate the antiproliferative activity of a compound of formula (I) the following human cell lines were used: A2780 ovarian and MCF-7 breast carcinoma; TT and MZ-CRC-1 medullary thyroid carcinoma, harboring a mutated RET-C634W and RET-M918T receptor respectively, LC-2/ad Non Small Cell Lung Carcinoma, expressing the CCDC6-RET fusion gene product. Exponentially growing cells were seeded and incubated at 37° C. in a humidified 5% C02 atmosphere using appropriate medium supplemented with 10% Fetal Bovine Serum. 24 hours following cell plating, scalar doses of the compounds dissolved in 0.1% DMSO were added to the medium and cells were exposed to drugs for either 72 hours (MCF-7 and A2780) or 144 hours (TT, MZ-CRC-1 and LC-2/ad), according to their different proliferation rate. At the end of treatment, cell proliferation was determined by an intracellular ATP monitoring system (CellTiterGlo—Promega), following manufacturer's instructions, and using an Envision instrument (PerkinElmer) as reader. Data obtained from compound versus vehicle treated cells were compared using Assay Explorer (Symyx Technologies Inc) software. IC50 values were calculated using sigmoidal interpolation curve fitting.

[2] = tested on: LC-2/ad Non Small Cell Lung Carcinoma cells, expressing the CCDC6-RET fusion gene product; assay: In Vitro Cell Proliferation Assay (LC-2/ad); format: cell-based; conditions: Homo sapiens, 144 hours exposure, CellTiterGlo
Experimental: as §1, §2

[3] = tested on: A2780 ovarian carcinoma cells; assay: In Vitro Cell Proliferation Assay (A2780); format: cell-based; conditions: Homo sapiens, 72 hours exposure, CellTiterGlo
Experimental: as §1, §2

[4] = High-Throughput Solubility Assay; format: physicochemical; conditions: kinetic from dmso stock; pH 7, aqueous potassium phosphate buffer, nominal 200 μM, 24 h at room temperature
Experimental: High-Throughput Solubility Assay
A nominal 200 μM suspensions/solutions of a compound of formula (I) in aqueous potassium phosphate buffer at pH=7 and aqueous citric acid buffer at pH=3 were prepared on a “Multiscreen-HTS”, 0.2 μm filter plate (Millipore, Billerica, Mass.). These solutions were stirred for 10 min and stored for 24 h at room temperature to pre-saturate the membrane filter and to reach a “pseudo-thermodynamic solubility”. Then the plate was put on a 500 μL 96 multiwell plate containing 200 μL of acetonitrile in each well and centrifuged at 2000 rpm for 5 minutes. The so obtained solutions were then analyzed simultaneously by HPLC-UV with standard solutions for quantification.

[5] = tested on: MZ-CRC-1 medullary thyroid carcinoma cells, harboring a mutated RET-M918T receptor; assay: In Vitro Cell Proliferation Assay (MZ-CRC-1); format: cell-based; conditions: Homo sapiens, 144 hours exposure, CellTiterGlo
Experimental: as §1, §2

[6] = tested on: MCF-7 breast carcinoma cells; assay: In Vitro Cell Proliferation Assay (MCF-7); format: cell-based; conditions: Homo sapiens, MCF7; 72 hours exposure, CellTiterGlo
Experimental: as §1, §2

SMILES	IC50 [1]	IC50 [2]	IC50 [3]	solubility at 24 h [4]	IC50 [5]	IC50 [6]
CCN1CCN(Cc2ccc(NC(=O)Cc3cccc(C#Cc4cnc(N)nc4-c4cc5c(n4C)CCNC5=O)c3)cc2C(F)(F)F)CC1 [Cmpd 77, 2-{3-[2-Amino-4-(1-methyl-4-oxo-4,5,6,7-tetrahydro-1H-pyrrolo[3,2-c]pyridin-2-yl)-pyrimidin-5-ylethynyl]-phenyl}-N-[4-(4-ethyl-piperazin-1-ylmethyl)-3-trifluoromethyl-phenyl]-acetamide]	0.002 µM	0.003 µM	2.82 µM	23 µM (≈ 15.4 µg/mL)	0.023 µM	6.65 µM
CCN1CCN(Cc2ccc(NC(=O)c3cccc(C#Cc4cnc(N)nc4-c4cc5c(n4C)CCNC5=O)c3)cc2C(F)(F)F)CC1 [Cmpd 48, 3-[2-Amino-4-(1-methyl-4-oxo-4,5,6,7-tetrahydro-1H-pyrrolo[3,2-c]pyridin-2-yl)-pyrimidin-5-ylethynyl]-N-[4-(4-ethyl-piperazin-1-ylmethyl)-3-trifluoromethyl-phenyl]-benzamide]	0.0005 µM	0.004 µM	0.085 µM	26.9 µM (≈ 17.7 µg/mL)	0.004 µM	1.84 µM
CCN1CCN(Cc2ccc(NC(=O)Nc3cccc(C#Cc4cnc(N)nc4-c4cc5c(n4C)CCNC5=O)c3)cc2C(F)(F)F)CC1 [Cmpd 8, 1-{3-[2-Amino-4-(1-methyl-4-oxo-4,5,6,7-tetrahydro-1H-pyrrolo[3,2-c]pyridin-2-yl)-pyrimidin-5-ylethynyl]-phenyl}-3-[4-(4-ethyl-piperazin-1-ylmethyl)-3-trifluoromethyl-phenyl]-urea]	0.002 µM	0.038 µM	1.76 µM	6.5 µM (≈ 4.37 µg/mL)	0.074 µM	4.78 µM

Second part, the molecule after the results:

IC50 [1]	IC50 [2]	IC50 [3]	solubility at 24 h [4]	IC50 [5]	IC50 [6]	SMILES
0.005 µM	0.01 µM	1.15 µM	3.5 µM (≈ 2.35 µg/mL)	0.015 µM	–	CNc1ncc(C#Cc2cccc(CC(=O)Nc3ccc(CN4CCN(C)CC4)c(C(F)(F)F)c3)c2)c(-c2cc3c(n2C)CCNC3=O)n1 [Cmpd 174, 2-{3-[2-Methylamino-4-(1-methyl-4-oxo-4,5,6,7-tetrahydro-1H-pyrrolo[3,2-c]pyridin-2-yl)-pyrimidin-5-ylethynyl]-phenyl}-N-[4-(4-methyl-piperazin-1-ylmethyl)-3-trifluoromethyl-phenyl]-acetamide]
0.008 µM	0.051 µM	2.31 µM	2.9 µM (≈ 2 µg/mL)	0.039 µM	–	CNc1ncc(C#Cc2cc(CC(=O)Nc3ccc(CN4CCN(C)CC4)c(C(F)(F)F)c3)ccc2F)c(-c2cc3c(n2C)CCNC3=O)n1 [Cmpd 190, 2-{4-Fluoro-3-[2-methylamino-4-(1-methyl-4-oxo-4,5,6,7-tetrahydro-1H-pyrrolo[3,2-c]pyridin-2-yl)-pyrimidin-5-ylethynyl]-phenyl}-N-[4-(4-methyl-piperazin-1-ylmethyl)-3-trifluoromethyl-phenyl]-acetamide]
0.007 µM	0.014 µM	2.22 µM	1.4 µM (≈ 0.959 µg/mL)	0.026 µM	2.31 µM	CCN1CCN(Cc2ccc(NC(=O)Cc3cccc(C#Cc4cnc(NC)nc4-c4cc5c(n4C)CCNC5=O)c3)cc2C(F)(F)F)CC1 [Cmpd 78, N-[4-(4-Ethyl-piperazin-1-ylmethyl)-3-trifluoromethyl-phenyl]-2-{3-[2-methylamino-4-(1-methyl-4-oxo-4,5,6,7-tetrahydro-1H-pyrrolo[3,2-c]pyridin-2-yl)-pyrimidin-5-ylethynyl]-phenyl}-acetamide]
0.014 µM	0.02 µM	3.83 µM	7.6 µM (≈ 5.31 µg/mL)	0.023 µM	–	CNc1ncc(C#Cc2cccc(CC(=O)Nc3ccc(CN4CCN(C(C)C)CC4)c(C(F)(F)F)c3)c2)c(-c2cc3c(n2C)CCNC3=O)n1 [Cmpd 176, N-[4-(4-Isopropyl-piperazin-1-ylmethyl)-3-trifluoromethyl-phenyl]-2-{3-[2-methylamino-4-(1-methyl-4-oxo-4,5,6,7-tetrahydro-1H-pyrrolo[3,2-c]pyridin-2-yl)-pyrimidin-5-ylethynyl]-phenyl}-acetamide]
